A word on the melting point: it is the temperature of the solid-liquid transition. Regarding `C=CCN1C(=O)c2cccc3c(CNCCOC(=O)C4(C)CCCC5(C)C6CCC(C(C)C)=CC6=CCC45)ccc(c23)C1=O` (stereo not shown) [Compound 17, 7-Isopropyl-1,4a-dimethyl-1,2,3,4,4a,4b,5,6,10,10a-decahydro-phenanthrene-1-carboxylic acid 2-[(2-allyl-1,3-dioxo-2,3-dihydro-1H-benzo[de]isoquinolin-6-yl)methylamino]ethyl ester], the melting point is 64 to 66 °C.

Source of the values: patent publication US20080009573A1, “Labeled tackifiers” (priority 2006, published 2008).
